Measurements: patent publication US10280159B2 (AbbVie Deutschland GmbH & Co. KG, priority 2015, dated 2019)
pEC50: −log10 of the molar value.

Tests used:
Type in all cases: cell-based
[1] = target: T1, human S1PR4 (Homo sapiens, UniProt O95977); test: Intracellular Ca2+ release (FLIPR) agonist potency, S1P4; conditions: recombinant CHO-K1 cells expressing human S1PR4, aequorin, Gq/i5; Calcium 5 FLIPR; read-out: S1P4 EC50
T1 construct: host or cells: CHO-K1
T1 sequence (O95977 1-384): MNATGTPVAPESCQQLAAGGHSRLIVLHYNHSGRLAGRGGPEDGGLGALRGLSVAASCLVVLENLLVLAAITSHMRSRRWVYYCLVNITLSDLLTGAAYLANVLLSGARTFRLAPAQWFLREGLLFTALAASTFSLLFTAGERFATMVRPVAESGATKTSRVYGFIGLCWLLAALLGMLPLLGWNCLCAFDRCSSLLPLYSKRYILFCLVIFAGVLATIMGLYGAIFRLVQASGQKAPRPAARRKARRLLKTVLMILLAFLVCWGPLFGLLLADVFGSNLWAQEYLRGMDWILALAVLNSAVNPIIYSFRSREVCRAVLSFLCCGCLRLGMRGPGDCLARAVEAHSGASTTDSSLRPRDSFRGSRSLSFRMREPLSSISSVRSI
Procedure: (§1) Agonistic activity was measured using the method described below.
(§2) Intracellular Ca^2+ Release
(§3) Agonist potency and intrinsic activity was assessed by measurement of intracellular Ca^2+ release. Recombinant CHO-K1 cells (Euroscreen, Brussels, Belgium) expressing human S1PR5, S1PR1, S1PR3 or S1PR4 receptors, aequorin, and GTP binding protein Gq/i5 were cultured using a medium containing nutrient mixture F-12 Ham (Sigma-Aldrich) with 10% FBS, and 100 μg/mL gentamicin and equilibrated at 5% CO2.
(§4) Phospho-fingolimod was used as positive control. Antagonists were pre-incubated for 10 min with cells before addition of the agonist (phospho-fingolimod at EC80). Measurements were performed using a fluorometric imaging plate reader FLIPR®tetra (Molecular Devices). Agonist at the human S1P receptors were characterized by deducing EC50 (potency) values from a nonlinear fit to the measured fluorescence raw data after normalization to the reference agonist (phospho-fingolimod) curve.

[2] = target: T2, human S1PR5 (Homo sapiens, UniProt Q9H228); test: Intracellular Ca2+ release (FLIPR) agonist potency, S1P5; conditions: recombinant CHO-K1 cells expressing human S1PR5, aequorin, Gq/i5; Calcium 5 FLIPR; read-out: S1P5 EC50 range
T2 construct: host or cells: CHO-K1
T2 sequence (Q9H228 whole entry): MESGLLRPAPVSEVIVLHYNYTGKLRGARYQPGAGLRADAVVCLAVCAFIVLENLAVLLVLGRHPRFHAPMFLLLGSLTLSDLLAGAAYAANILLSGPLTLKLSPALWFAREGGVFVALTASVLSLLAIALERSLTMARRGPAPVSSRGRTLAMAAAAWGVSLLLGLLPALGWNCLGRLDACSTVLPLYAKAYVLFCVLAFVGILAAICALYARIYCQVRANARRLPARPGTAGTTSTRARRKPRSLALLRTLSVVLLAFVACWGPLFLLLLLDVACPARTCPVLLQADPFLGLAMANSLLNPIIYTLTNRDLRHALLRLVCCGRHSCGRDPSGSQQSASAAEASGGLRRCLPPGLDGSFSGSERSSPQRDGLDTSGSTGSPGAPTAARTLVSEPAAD
Procedure: as §1, §2, §3, §4

[3] = target: T3, human S1PR1 (Homo sapiens, UniProt P21453); test: Intracellular Ca2+ release (FLIPR) agonist potency, S1P1; conditions: recombinant CHO-K1 cells expressing human S1PR1, aequorin, Gq/i5; Calcium 5 FLIPR; read-out: S1P1 EC50
T3 construct: host or cells: CHO-K1
T3 sequence (P21453 whole entry): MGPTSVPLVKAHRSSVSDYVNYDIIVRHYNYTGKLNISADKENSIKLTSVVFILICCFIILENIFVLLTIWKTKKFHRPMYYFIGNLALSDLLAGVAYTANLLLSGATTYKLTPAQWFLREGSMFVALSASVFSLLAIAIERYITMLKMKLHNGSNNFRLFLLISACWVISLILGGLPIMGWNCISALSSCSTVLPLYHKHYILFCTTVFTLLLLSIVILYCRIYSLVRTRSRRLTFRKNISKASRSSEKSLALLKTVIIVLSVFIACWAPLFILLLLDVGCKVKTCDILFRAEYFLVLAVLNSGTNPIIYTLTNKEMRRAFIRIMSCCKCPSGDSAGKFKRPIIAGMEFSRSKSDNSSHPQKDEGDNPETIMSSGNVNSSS
Procedure: as §1, §2, §3, §4

Compound | pEC50 [1] | pEC50 [2] | pEC50 [3]
O=C(O)C1CN(C2COc3cc(OCc4c(Cl)cccc4Cl)ccc3C2)C1 (single isomer, unassigned) [Compound 144, 1-(7-((2,6-dichlorobenzyl)oxy)chroman-3-yl)azetidine-3-carboxylic acid] | < 6.00 | 7.00 to 8.00 | < 6.00
O=C(O)C1CN(C2COc3cc(OCc4c(Cl)cccc4Cl)ccc3C2)C1 (single isomer, unassigned) [Compound 145, 1-(7-((2,6-dichlorobenzyl)oxy)chroman-3-yl)azetidine-3-carboxylic acid] | < 6.00 | 6.00 to 7.00 | < 6.00
CCc1cccc(F)c1COc1ccc2c(c1)OCC(N1CC(C(=O)O)C1)C2 (single isomer, unassigned) [Compound 146, 1-(7-((2-ethyl-6-fluorobenzyl)oxy)chroman-3-yl)azetidine-3-carboxylic acid] | > 6.00 | > 8.00 | < 6.00
CCc1cccc(F)c1COc1ccc2c(c1)OCC(N1CC(C(=O)O)C1)C2 (single isomer, unassigned) [Compound 147, 1-(7-((2-ethyl-6-fluorobenzyl)oxy)chroman-3-yl)azetidine-3-carboxylic acid] | > 6.00 | > 8.00 | < 6.00
CCc1cccc(Cl)c1COc1ccc2c(c1)CCC(OCC(=O)O)C2 (single isomer, unassigned) [Compound 239] | < 6.00 | 6.00 to 7.00 | < 6.00
CCc1cccc(Cl)c1COc1ccc2c(c1)CCC(OCC(=O)O)C2 (single isomer, unassigned) [Compound 240] | < 6.00 | 7.00 to 8.00 | < 6.00
O=C(O)C1CN(C2COc3cc(OCc4ccccc4F)ccc3C2)C1 (centres unmarked) [Compound 3, 1-(7-((2-fluorobenzyl)oxy)chroman-3-yl)azetidine-3-carboxylic acid] | < 6.00 | 5.00 to 6.00 | < 6.00
O=C(O)C1CN(C2COc3cc(C#Cc4cccc(F)c4F)ccc3C2)C1 (centres unmarked) [Compound 26, 1-(7-((2,3-difluorophenyl)ethynyl)chroman-3-yl)azetidine-3-carboxylic acid] | < 6.00 | 7.00 to 8.00 | < 6.00
O=C(O)C12CC1CCN2C1CCc2cc(OCc3c(Cl)cccc3Cl)ccc2C1 (centres unmarked) [Compound 36, 2-(6-((2,6-dichlorobenzyl)oxy)-1,2,3,4-tetrahydronaphthalen-2-yl)-2-azabicyclo[3.1.0]hexane-1-carboxylic acid] | < 6.00 | 6.00 to 7.00 | < 6.00
CC(C)C(NC1CCc2cc(OCc3c(Cl)cccc3Cl)ccc2C1)C(=O)O (centres unmarked) [Compound 37, 2-((6-((2,6-dichlorobenzyl)oxy)-1,2,3,4-tetrahydronaphthalen-2-yl)amino)-3-methylbutanoic acid] | < 6.00 | 6.00 to 7.00 | < 6.00
O=C(O)C1CN(C2COc3cc(C#CC4CCCCC4)ccc3C2)C1 (centres unmarked) [Compound 39, 1-(7-(cyclohexylethynyl)chroman-3-yl)azetidine-3-carboxylic acid] | < 6.00 | 6.00 to 7.00 | < 6.00
Cc1cccc(C#Cc2ccc3c(c2)OCC(N2CC(C(=O)O)C2)C3)c1 (centres unmarked) [Compound 43, 1-(7-((3-(methyl)phenyl)ethynyl)chroman-3-yl)azetidine-3-carboxylic acid] | > 6.00 | 6.00 to 7.00 | < 6.00
CCOc1ccc(C#Cc2ccc3c(c2)OCC(N2CC(C(=O)O)C2)C3)cc1 (centres unmarked) [Compound 45, 1-(7-((4-ethoxyphenyl)ethynyl)chroman-3-yl)azetidine-3-carboxylic acid] | < 6.00 | 6.00 to 7.00 | > 6.00
O=C(O)C1CN(C2COc3cc(OCc4ccc(Cl)cc4)ccc3C2)C1 (centres unmarked) [Compound 46, 1-(7-((4-chlorobenzyl)oxy)chroman-3-yl)azetidine-3-carboxylic acid] | < 6.00 | 5.00 to 6.00 | < 6.00
O=C(O)C1(CNC2COc3cc(OCc4c(Cl)cccc4Cl)ccc3C2)CC1 (centres unmarked) [Compound 49, 1-(((7-((2,6-dichlorobenzyl)oxy)chroman-3-yl)amino)methyl)cyclopropanecarboxylic acid] | > 6.00 | 6.00 to 7.00 | < 6.00
O=C(O)C1CN(C2COc3cc(OCc4cccc(F)c4F)ccc3C2)C1 (centres unmarked) [Compound 51, 1-(7-((2,3-difluorobenzyl)oxy)chroman-3-yl)azetidine-3-carboxylic acid] | < 6.00 |  | < 6.00
O=C(O)C1CN(C2COc3cc(OCc4cc(Cl)ccc4Cl)ccc3C2)C1 (centres unmarked) [Compound 52, 1-(7-((2,5-dichlorobenzyl)oxy)chroman-3-yl)azetidine-3-carboxylic acid] | < 6.00 | 5.00 to 6.00 | < 6.00
Cc1cccc(F)c1COc1ccc2c(c1)OCC(N1CC(C(=O)O)C1)C2 (centres unmarked) [Compound 53, 1-(7-((2-fluoro-6-methylbenzyl)oxy)chroman-3-yl)azetidine-3-carboxylic acid] | < 6.00 | 6.00 to 7.00 | < 6.00
O=C(O)C1CN(C2COc3cc(OCc4ccc(C(F)(F)F)cc4)ccc3C2)C1 (centres unmarked) [Compound 57, 1-(7-((4-(trifluoromethyl)benzyl)oxy)chroman-3-yl)azetidine-3-carboxylic acid] | < 6.00 | 5.00 to 6.00 | < 6.00
O=C(O)C1CN(C2COc3cc(OCc4c(F)cccc4F)ccc3C2)C1 (centres unmarked) [Compound 60, 1-(7-((2,6-difluorobenzyl)oxy)chroman-3-yl)azetidine-3-carboxylic acid] | < 6.00 |  | < 6.00
O=C(O)COC1CCc2cc(OCc3cc(Cl)ccc3C(F)(F)F)ccc2C1 (centres unmarked) [Compound 153, 2-[6-[[5-chloro-2-(trifluoromethyl)phenyl]methoxy]tetralin-2-yl]oxyacetic acid] |  |  | < 6.00
O=C(O)CCOC1CCc2cc(OCc3ccccc3C(F)(F)F)ccc2C1 (centres unmarked) [Compound 178, 3-[6-[[2-(trifluoromethyl)phenyl]methoxy]tetralin-2-yl]oxypropanoic acid] |  | 5.00 to 6.00 | < 6.00
O=C(O)CCOC1CCc2cc(OCc3cccc(Cl)c3)ccc2C1 (centres unmarked) [Compound 187, 3-[6-[(3-chlorophenyl)methoxy]tetralin-2-yl]oxypropanoic acid] | < 6.00 |  | < 6.00
O=C(O)CCOC1CCc2cc(OCc3cccc(C(F)(F)F)c3)ccc2C1 (centres unmarked) [Compound 193, 3-[6-[[3-(trifluoromethyl)phenyl]methoxy]tetralin-2-yl]oxypropanoic acid] | > 6.00 |  | < 6.00
Cc1ccccc1COc1ccc2c(c1)CCC(OCC(=O)O)C2 (centres unmarked) [Compound 197, 2-[6-(o-tolylmethoxy)tetralin-2-yl]oxyacetic acid] | > 6.00 |  | < 6.00
O=C(O)COC1CCc2cc(OCc3ccc(C(F)(F)F)cc3)ccc2C1 (centres unmarked) [Compound 202, 2-[6-[[4-(trifluoromethyl)phenyl]methoxy]tetralin-2-yl]oxyacetic acid] | < 6.00 |  | < 6.00
O=C(O)COC1CCc2cc(OCc3ccccc3F)ccc2C1 (centres unmarked) [Compound 215, 2-[6-[(2-fluorophenyl)methoxy]tetralin-2-yl]oxyacetic acid] |  | 5.00 to 6.00 | < 6.00
